Drawing on ChEMBL document CHEMBL3507680, “University of Dundee, Gates Library screen for HepG2 cell viability”, this text covers cytotoxicity for 103 molecules.

This data set in a line: Human HepG2 cell viability assay in 384 well format. In kind it is toxicity, cell-based. Also noted: dose 125 nL, time 70.5 hour; cytotoxicity at 70.5 h: concentration not given beside the values. Particulars: HepG2 cells, read-out: Inhibition.

For `CS(=O)(=O)NCCCn1ccc2ccccc21`, the cytotoxicity at 70.5 h is -13.2%. Turning to `CCS(=O)(=O)CC(=O)Nc1ccccc1N1CCc2ccccc21`, the cytotoxicity at 70.5 h is -13.2%.

With `CC(C)NC(=O)c1ccc(NC(=O)NC(C)c2ccccn2)cc1` (stereo not drawn), the cytotoxicity at 70.5 h came to 19.1%. As for `CC(C)n1cnnc1CNC(=O)CCCOc1ccccc1Cl`, the cytotoxicity at 70.5 h is -6.43%. Turning to `CC(C)n1cnnc1CNC(=O)CCCOc1ccccc1F`, the cytotoxicity at 70.5 h is -11.9%. `Cc1nc(CN(C)C(=O)CNC(=O)c2ccc(C#N)cc2)cs1`: the cytotoxicity at 70.5 h is -8.22%. Consider `CN(C)Cc1nc(C(C)(C)NC(=O)c2cccc3ccccc23)no1`, for which the cytotoxicity at 70.5 h is -7.53%. Consider `CC(C)(C)C(=O)NCC(=O)NCC1CCCS1` (stereo not drawn), for which the cytotoxicity at 70.5 h was -10.6%. Regarding `Fc1cccc(C(NCc2ncc[nH]2)c2ccccc2)c1` (stereo not drawn), the cytotoxicity at 70.5 h is -3.27%. Consider `CC(C)(C)CC(=O)NCC1CCCS1` (stereo not drawn), for which the cytotoxicity at 70.5 h was -8.2%.

On to `Cc1ccc(OCC(=O)NC2(C#N)CCSCC2)cc1C`, for which the cytotoxicity at 70.5 h was -10.6%. With `CN1CCN(c2ccc(NCc3ccsc3)cn2)CC1`, the cytotoxicity at 70.5 h is -8.79%.

With `CN1CCN(c2ccc(NCc3ccc([S+](C)[O-])cc3)cn2)CC1` (stereo not drawn), the cytotoxicity at 70.5 h is -0.416%.

As for `CNC(=O)NCC(=O)Nc1ccccc1N1CCc2ccccc21`, the cytotoxicity at 70.5 h is -3.43%.

Turning to `N#Cc1cc(C(F)(F)F)ccc1NCC1CCS(=O)(=O)CC1`, the cytotoxicity at 70.5 h came out at 16.6%. `Cc1nc(NS(=O)(=O)c2ccc(C)c(Br)c2)no1`: the cytotoxicity at 70.5 h was -12.1%. With `COc1ccc(CN(C(=O)C2CCCO2)c2ccncc2)cc1` (stereo not drawn), the cytotoxicity at 70.5 h was -8.37%. Consider `N#Cc1cccc(CNCCC(=O)N2CCc3sccc3C2)c1`, for which the cytotoxicity at 70.5 h is -3.34%. Next, `CCc1nnsc1C(=O)NC(CC(C)C)C(=O)OC` (stereo not drawn): -7.11%; `Cc1nc(-c2ccco2)ccc1C(=O)NCCCN1CCOCC1`: -98.3%.

As for `Cc1nnc(SCc2cccc(F)c2)n1CC(N)=O`, the cytotoxicity at 70.5 h was -125%. As for `COc1cccc(CSc2nnc(C)n2CC(N)=O)c1`, the cytotoxicity at 70.5 h is -98.4%.

For the molecule `Cc1nc(CC(=O)NS(=O)(=O)c2cccc3cnccc23)cs1`, the cytotoxicity at 70.5 h was -110%. On to `CCn1nc(C)c(C(=O)N2CCC(Nc3ccc(C)nn3)CC2)c1C`, for which the cytotoxicity at 70.5 h was -106%. Take `O=C(OCC1CCN(c2ccccc2)C1)c1cscn1` (stereo not drawn): the cytotoxicity at 70.5 h is -103%.

Regarding `CCn1c(C)cc(C(=O)N2CCC(NC(=O)c3ccc(C)o3)CC2)c1C`, the cytotoxicity at 70.5 h is -89.5%. Turning to `Cc1ncsc1C(=O)OCC1CCN(c2ccccc2)C1` (stereo not drawn), the cytotoxicity at 70.5 h is -97.5%. `CS(=O)(=O)CCN1CCC(Nc2c(Cl)cccc2C#N)CC1`: the cytotoxicity at 70.5 h is -94%. As to `CNS(=O)(=O)CC(=O)N1CCCc2cc(C(C)C)ccc21`, the cytotoxicity at 70.5 h is -98.6%. Turning to `Cc1ccc(C(=O)N2CCC3(CCCCC3)C2)c(=O)[nH]1`, the cytotoxicity at 70.5 h was -105%. On to `NC(=O)C1=NN2C(=NS(=O)(=O)c3ccccc32)N1`, for which the cytotoxicity at 70.5 h is -106%. Next, `Cn1cccc1C(=O)NC(C)(C(N)=O)c1cccc(C(F)(F)F)c1` (stereo not drawn): -55.1%; `COc1ccc(CNC(=O)N(C)CC(C)(C)O)cc1OC`: -109%; `O=C(Cc1csc(-c2ccccn2)n1)NCCCN1CCCCCC1=O`: -76.6%. Turning to `Cc1nc2n(n1)CC(NCc1nc3ccccc3o1)CC2` (stereo not drawn), the cytotoxicity at 70.5 h was found to be 1.97%. For `COc1ncccc1CNC(=O)c1cc(F)cc(Br)c1` the value was -2.19%; for `CC(C)(C)C(Cn1ccnc1)NC(=O)NCc1ccco1` (stereo not drawn), -7.73%. On to `Cc1cc(C)cc(N(CCC#N)C(=O)CN2CCCC2c2cccs2)c1` (stereo not drawn), for which the cytotoxicity at 70.5 h was determined as 25.9%.

Take `COc1ccc(CNC(=O)NC2CCN(CC3CCCC3)CC2)cn1`: the cytotoxicity at 70.5 h is -9.34%. As for `COc1cc(CNC(=O)Nc2nncs2)ccc1O`, the cytotoxicity at 70.5 h was -1.98%. Regarding `O=C1CCN(C(=O)C2(c3ccc(F)cc3)CCOCC2)CCN1`, the cytotoxicity at 70.5 h is -8.05%. In the case of `CCc1noc(C)c1C(=O)NCc1c(C)nn(CCOC)c1C`, the cytotoxicity at 70.5 h was -4.73%. For `Cc1nc(CNC2CCc3ncnn3C2)oc1C` (stereo not drawn) the value was -5.86%; for `Cc1nc2n(n1)CC(NCc1nc(C)c(C)o1)CC2` (stereo not drawn), -0.801%; for `CC(NC(=O)c1cccc(CN2CCN(C)CC2)c1)c1nccs1` (stereo not drawn), 1.61%.

With `CC(Cc1ccccc1Br)NC(=O)CCS(C)(=O)=O` (stereo not drawn), the cytotoxicity at 70.5 h is 27.4%. For `COC(=O)CCC(=O)NC(C)Cc1ccccc1Br` (stereo not drawn) the value was -4.19%; for `CNS(=O)(=O)Cc1cccc(CNc2ccc(Cl)cn2)c1`, 4.33%; for `CN(Cc1cc(Br)cn1C)C(=O)c1ccon1`, -2.35%. For `COc1ccc(CNC(=O)N2CCCC(Nc3ccccc3)C2)cn1` (stereo not drawn), the cytotoxicity at 70.5 h was -7.17%. Turning to `Cc1ccc(S(=O)(=O)N2CC[C@@H](O)C2)c(F)c1`, the cytotoxicity at 70.5 h is -2.84%.

As for `Cc1noc(NCc2cc(F)ccc2F)n1`, the cytotoxicity at 70.5 h is -3.22%.

For the molecule `COCCOc1ccc(NC(=O)N(CC2CCOC2)C2CC2)cn1` (stereo not drawn), the cytotoxicity at 70.5 h is -2.98%. For `CCN(C)CC1CCN(S(=O)(=O)c2cc(C)c(F)cc2Cl)C1` (stereo not drawn) the value was -4.14%; for `CCc1nc2n(n1)CC(NCc1nc(C)c(C)o1)CC2` (stereo not drawn), -5.85%; for `Cn1cc(C2CCCN2CC(=O)N(CCC#N)Cc2ccco2)cn1` (stereo not drawn), 2%. On to `CCc1nnc(C2Cc3ccccc3CN2Cc2nc(C3CC3)no2)o1` (stereo not drawn), for which the cytotoxicity at 70.5 h is -5.61%. Take `c1cncc(CN2CCC(c3n[nH]c(C4CC4)n3)CC2)c1`: the cytotoxicity at 70.5 h was found to be 33.7%.

With `O=C(c1ccoc1)N1CCC(NCc2ccccc2-n2ccnc2)CC1`, the cytotoxicity at 70.5 h was found to be 9.01%. On to `CC(C)CN1CC(C(=O)NCCc2ccc(OC(F)F)cc2)CC1=O` (stereo not drawn), for which the cytotoxicity at 70.5 h stood at 9.73%. Consider `O=C(CCNc1ncccn1)NCCc1ccc(Cl)s1`, for which the cytotoxicity at 70.5 h is -3.42%. Consider `O=C(CCNc1ncccn1)NCc1csc(Br)c1`, for which the cytotoxicity at 70.5 h worked out at 11.5%. Next, `CCS(=O)(=O)N1CCC(Nc2c(F)cc(C#N)cc2F)CC1`: -9.63%.

For the molecule `CCCS(=O)(=O)N1CCC(Nc2c(F)cc(C#N)cc2F)CC1`, the cytotoxicity at 70.5 h is -2.66%. Turning to `Cc1nc(S(=O)(=O)NCCC(=O)NCc2ccc(C#N)cc2)cn1C`, the cytotoxicity at 70.5 h is -0.237%. As to `CCN(CC)c1ccc(CNC(=O)c2cnc(C)cn2)cn1`, the cytotoxicity at 70.5 h was -4.04%. On to `CNC(=O)C1CCN(C(=O)NCc2ccc(C)n2C)CC1`, for which the cytotoxicity at 70.5 h is -4.71%.

In the case of `Nc1cc2c(nn1)CCN(C(=O)Cc1ccc3c(c1)CCCC3)C2`, the cytotoxicity at 70.5 h was -2.05%.

`CN(C)c1cc2c(nn1)CCN(C(=O)Cc1ccc3c(c1)CCO3)C2`: the cytotoxicity at 70.5 h is -5.69%. As to `NC(=O)CC1CCN(C(=O)NCC2(c3ccccc3F)CC2)CC1`, the cytotoxicity at 70.5 h is 0.188%. In the case of `Nc1cc2c(nn1)CCN(C(=O)Cc1ccc3c(c1)CCO3)C2`, the cytotoxicity at 70.5 h turned out to be 9.71%. Consider `Nc1cc2c(nn1)CCN(C(=O)CCc1ccc3c(c1)OCO3)C2`, for which the cytotoxicity at 70.5 h is -6.15%. Next, `O=C(CCc1ccsc1)NCc1ccnc(OC2CCOCC2)c1`: -5.9%; `Cc1c(NC(C)C(C)C)cccc1C(=O)NCc1nnc(C)n1C` (stereo not drawn): 8.29%. Consider `Cc1ccc(F)cc1C(=O)OCC1CCCN1C(N)=O` (stereo not drawn), for which the cytotoxicity at 70.5 h was -1.91%. In the case of `Cc1c(F)cccc1NC(=O)N(C(C)CS(C)(=O)=O)C1CC1` (stereo not drawn), the cytotoxicity at 70.5 h is -4.32%. With `CC(C)Cc1cc(NC(=O)N2CCC(Oc3cccnc3)C2)n(C)n1` (stereo not drawn), the cytotoxicity at 70.5 h came to 5.38%. `Cc1noc(-c2cccnc2N2CCN(c3cnn(C)c3)CC2)n1`: the cytotoxicity at 70.5 h is -12%. Take `Cn1cc(CCC(=O)NS(=O)(=O)N2CCCc3ccccc32)cn1`: the cytotoxicity at 70.5 h was -8.12%.

For `O=C(NCCc1ccsc1)c1ccoc1`, the cytotoxicity at 70.5 h stood at 5.67%.

For `CN(CCn1nc2ccccn2c1=O)CC(=O)N(C)C1CCCCC1`, the cytotoxicity at 70.5 h is 2.32%. On to `Cc1nc(CNC(=O)NC2CCCN(c3ncccn3)C2)cs1` (stereo not drawn), for which the cytotoxicity at 70.5 h is -14.1%. Take `COC(=O)C(C)(C)NC(=O)C1CC(=O)N(CC2CC2)C1` (stereo not drawn): the cytotoxicity at 70.5 h was -6.45%. In the case of `Cc1nc2cc(O)nn2c(C)c1CCC(=O)N(C)Cc1ccccc1`, the cytotoxicity at 70.5 h was 2.7%. For the molecule `Cc1ccc(C(=O)N(C)CCOc2ccccc2F)c(=O)[nH]1`, the cytotoxicity at 70.5 h was -5.2%. `COc1c(CNCc2cccnc2N2CCCCC2)c(C)nn1C`: the cytotoxicity at 70.5 h stood at 2.37%.

For `Cc1nn(C)c(N(C)C)c1CNCc1cccnc1N1CCOCC1`, the cytotoxicity at 70.5 h was -8.33%. For `Cc1nnc2n1CCN(C(=O)c1cn(-c3ccccc3)nn1)C2`, the cytotoxicity at 70.5 h is -1.52%.

Turning to `Cc1nc2cc(O)nn2c(C)c1CCC(=O)N(C)CCC(C)C`, the cytotoxicity at 70.5 h is -7.92%. With `CCOc1ccc(NC(=O)N2CCOC(C(N)=O)C2)cc1Cl` (stereo not drawn), the cytotoxicity at 70.5 h came out at 2.49%. For `Cc1ccc(NC(=O)N2CCOC(C(N)=O)C2)cc1C(F)(F)F` (stereo not drawn), the cytotoxicity at 70.5 h is -4.03%. On to `COc1ccc(OC)c(C(=O)N2CCC(Nc3cccnc3)CC2)c1`, for which the cytotoxicity at 70.5 h is -0.864%. Take `CCOc1ccc(NC(=O)N2CCOC(C(N)=O)C2)cc1C` (stereo not drawn): the cytotoxicity at 70.5 h came to 1.77%. Consider `CN1N=C(C(=O)N(Cc2ccco2)C2CCCC2)CCC1=O`, for which the cytotoxicity at 70.5 h was -9.57%. Take `O=C(Cc1ccc2c(c1)CCC2)N1CCCC1Cn1cccn1` (stereo not drawn): the cytotoxicity at 70.5 h worked out at 26.4%. For `CN(CCN1CCOCC1)C(=O)CCCOCCc1ccccc1` the value was 13.1%; for `CN(Cc1ccc(F)cc1)S(=O)(=O)N1CCOCC1`, 6.44%; for `O=C(NCc1ccccn1)NC1CCCN(c2ncccn2)C1` (stereo not drawn), -9.45%.

Consider `O=C(NCc1ccoc1)NC1CCN(c2ncccn2)CC1`, for which the cytotoxicity at 70.5 h stood at 16.1%. For `CNC(=O)c1ccc(CNC(=O)c2ccc(Cl)cc2F)cc1` the value was -11.8%; for `CCC(=O)Nc1ccc2c(ccn2CCOC)c1`, -8.06%; for `COC1CCN(C(=O)c2cc(-c3ccc(Cl)cc3)on2)CC1`, -8.24%. With `O=C(c1ccoc1)N1CCC(NCc2ccccc2Cl)CC1`, the cytotoxicity at 70.5 h was -8.33%.
